System: infected cooling water
Assay: Biocide test: bacterial counts in dosed samples of infected cooling water after 17 hours
Type: cell-based
Conditions: for bacterial counts per ml.: Table 2 (Example 6), control 10⁷
Method: Ethyl tris (hydroxymethyl) phosphonium chloride (Ethyl THPC) prepared according to the method of example 4, THPS, and a tetrakis (1 - hydroxy ethyl) phosphonium chloride (comparative example) were each dosed at four different concentrations to separate samples of an infected cooling water.
Bacterial counts per ml. of solution were estimated after 17 hours. The results are set out in Table 1 Table 1
Methyl tris (hydroxy methyl) phosphonium chloride (methyl THPC), THPS, and two other comparative examples, cyclohexyl tris (hydroxy methyl) phosphonium chloride and octyl tris (hydroxy methyl) phosphonium sulphate were each added at concentrations of 50, 200 and 1,000 ppm to separate samples of an infected cooling water.
Allyl tris (hydroxymethyl) phosphonium bromide (allyl THPB) prepared as described in Ex3 was compared with 2, 6-dichlorobenzyl tris (hydroxymethyl) phosphonium bromide and THPS in a biocide test as described in example 5. […]

[1] = Example 5, summary in words of Table 1
[2] = Table 1 (Example 5), 150 ppm, after 17 hours, control 10⁶
[3] = Table 1 (Example 5), 200 ppm, after 17 hours, control 10⁶
[4] = Table 3 (Example 7), 100 ppm, test as in example 5
[5] = Table 3 (Example 7), 150 ppm, test as in example 5
[6] = Table 3 (Example 7), 200 ppm, test as in example 5

Compound	bactericidal activity [1]	Bacterial counts per ml. of solution [2] [per ml]	Bacterial counts per ml. of solution [3] [per ml]	bacterial counts per ml. (200 ppm, after 17 hours) [per ml]	bacterial counts per ml. (1000 ppm, after 17 hours) [per ml]	Bacterial counts per ml. of solution [4] [per ml]	Bacterial counts per ml. of solution [5] [per ml]	Bacterial counts per ml. of solution [6] [per ml]	bactericidal activity (Example 7, summary in words of Table 3)	Bacterial counts per ml. of solution (Table 1 (Example 5), 100 ppm, after 17 hours, control 10⁶) [per ml]
OC[P+](CO)(CO)CO [THPS, reference compound]	effective	0	0	0	0	0	0	0	–	–
C=CC[P+](CO)(CO)CO.[Br-] [ALLYL THPB, Allyl tris (hydroxymethyl) phosphonium bromide]	–	–	–	–	–	0	0	0	performs at least as well as THPS	–
CC[P+](CO)(CO)CO.[Cl-] [ETHYL THPC, Ethyl tris (hydroxymethyl) phosphonium chloride]	more effective than THPS at lower concentrations	0	0	–	–	–	–	–	–	0
C[P+](CO)(CO)CO.[Cl-] [METHYL THPC, Methyl tris (hydroxy methyl) phosphonium chloride]	–	–	–	0	0	–	–	–	–	–

From patent publication EP0380359A1, “Biocidal compositions and treatments” (Albright & Wilson Limited, priority 1989, dated 1990)
